Reference: patent publication US8722703B2, “Fused amino pyridines for the treatment of brain tumors” (Curis, Inc., priority 2009, dated 2014)

Key:
[1] = test system: H1975 intracranial tumor; assay: Efficacy study in H1975 intracranial metastasis model; format: in vivo, nude mice; details: Compound-15 120 mg/kg orally once every two days, lapatinib 75 mg/kg orally twice a day, 4 wk
[2] = target: HSP90 (Homo sapiens, UniProt P07900); assay: HSP90 competition binding (fluorescence polarization) assay
Excerpt: (b) HSP90 Competition Binding (Fluorescence Polarization) Assay.
A fluorescein isothiocyanate (FITC) labeled GM was purchase from InvivoGen (ant-fgl-1). The interaction between HSP90 and labeled GM forms the basis for the fluorescence polarization assay. A free and fast-tumbling FITC labeled GM emits random light with respect to the plane of polarization plane of excited light, resulting in a lower polarization degree (mP) value. When GM is bound to HSP90, the complex tumble slower and the emitted light is polarized, resulting in a higher mP value. […] The assay buffer contained 20 mM HEPES (pH 7.3), 50 mM KCl, 1 mM DTT, 50 mM MgCl2, 20 mM Na2MoO4, 0.01% NP40 with 0.1 mg/ml bovine gamma-globulin.

[3] = Mouse brain concentrations after oral 30 mg/Kg in nude mice with U87MG xenografts; format: in vivo; details: oral (30 mg/Kg) delivery, U87MG xenografts; for concentration at 0 hr / concentration at 0.5 hr / concentration at 1 hr / concentration at 3 hr / concentration at 6 hr / concentration at 24 hr: female, athymic nude (CD-1 nu/nu), mouse, brain, read-out: HSP90 Compounds in Mouse Brain
[4] = test system: A549 orthotopic lung tumor; assay: Efficacy study in A549 orthotopic lung tumor model; format: in vivo, nude mice; details: Compound-15 120 mg/kg orally once every two days, erlotinib 50 mg/kg orally once a day, 4 wk
[5] = test system: H1975 orthotopic lung tumor; assay: Efficacy study in the H1975 orthotopic lung tumor (NSCLC) model; format: in vivo, nude mice; details: Compound-15 120 mg/kg orally once every two days, erlotinib 50 mg/kg orally once a day, 5 wk
Experimental: Dose-dependent efficacy study of Compound-15 in H1975 orthotopic lung tumor model (n=11): Mice were treated with Compound-15 (20, 40, 80, and 120 mg/kg) starting 4 day after tumor implantation.

Structure (SMILES) | IC50 [2] | concentration at 0 hr [3] | concentration at 0.5 hr [3] | concentration at 1 hr [3] | concentration at 3 hr [3] | concentration at 6 hr [3] | concentration at 24 hr [3] | AUC in mouse brain [3] | other results
CS(=O)(=O)CCNCc1ccc(-c2ccc3ncnc(Nc4ccc(OCc5cccc(F)c5)c(Cl)c4)c3c2)o1 [lapatinib, reference compound] | – | – | – | – | – | – | – | – | animal survival [1]: lack of lapatinib efficacy
CC(C)(C)CNCCCn1c(Sc2cc3c(cc2I)OCO3)nc2c(N)nccc21 [Compound 11, 2-(6-iodobenzo[d][1,3]dioxol-5-ylthio)-1-(3-(neopentylamino)propyl)-1H-imidazo[4,5-c]pyridin-4-amine] | 100 to 1000 nM | – | – | – | – | – | – | – | –
NC(=O)CCCn1c(Sc2cc3c(cc2I)OCO3)nc2c(N)nccc21 [Compound 22] | – | 0 ng/g | 2.5 ng/g | 2.2 ng/g | 3.7 ng/g | 0.9 ng/g | 1.3 ng/g | 36.7 ng·h/g | –
CC(C)(C)CNCCCn1c(Sc2cc3c(cc2Br)OCO3)nc2c(N)nccc21 [Compound 10] | 100 to 1000 nM | – | – | – | – | – | – | – | –
CC(C)(C)CNCCn1c(Sc2cc3c(cc2S(C)(=O)=O)OCO3)nc2c(N)nccc21 [Compound 23] | – | 0 ng/g | 5.4 ng/g | 13.6 ng/g | 21.5 ng/g | 9.1 ng/g | 3 ng/g | 231.8 ng·h/g | –
C#Cc1cccc(Nc2ncnc3cc(OCCOC)c(OCCOC)cc23)c1 [erlotinib, reference compound] | – | – | – | – | – | – | – | – | animal survival [4]: no antitumor effect; animal survival [5]: no therapeutic benefit
